{
  "source": "patent US20120165553A1",
  "about": "“IMMUNOSTIMULANT” (RIKEN, priority 2010, published 2012)",
  "key": {"[1]": {"test_system": "mouse spleen cells (T cells and B cells)", "assay": "spleen cell proliferation caused by antigen stimulation (BrdU incorporation ELISA)", "format": "cell-based", "conditions": "BL 10 nM; antigen 10 µg/mL of ovalbumin; cultured for 3 days; spleen cells of ovalbumin/aluminum hydroxide immunised BALB/c mouse; FIG. 1", "protocol": "The effect of BL on the spleen cell proliferation caused by an antigen stimulation was examined.\nA mixed solution (0.2 mL) of […] of ovalbumin (Sigma-Aldrich Corporation) and 4 mg of aluminum hydroxide (Thermo Scientific Pierce Protein Research Products) was intraperitoneally administered to a BALB/c mouse (female, 8 to 12 weeks old) and the spleen was collected 2 weeks later. Cells were isolated from the spleen and cultured in RPMI-1640 medium containing 10% fetal bovine serum (Cansera International Inc.), 5×10^−5M β-mercaptoethanol (Wako Pure Chemical Industries, Ltd.), 20 U/mL penicillin (Meiji Seika Kaisha, Limited) and 100 μg/mL streptomycin (Meiji Seika Kaisha, Limited) at 37° C. under the presence of 5% CO2. Cells to which BL (Brassino Co., Ltd.) was added in a concentration of 10 nM and cells to which BL was not added were respectively stimulated by an antigen ([…] of ovalbumin), cultured for 3 days and measured for the incorporated BrdU in the detection of proliferating spleen cells using a cell proliferation ELISA BrdU colorimetric kit (Roche Applied Science)."}, "BALB/c mouse": {"test_system": "BALB/c mouse", "assay": "antigen (ovalbumin) specific antibody (IgG) production in mouse, serum ELISA", "format": "in vivo", "conditions": "BL 0.2, 1 and 5 mg/Kg of body weight intraperitoneally every other day; serum 2 weeks later; absorbance at 450 nm; FIG. 2", "protocol": "A mixed solution (0.2 mL) of […] of ovalbumin (Sigma-Aldrich Corporation) and 4 mg of aluminum hydroxide (Thermo Scientific Pierce Protein Research Products) was intraperitoneally administered to a BALB/c mouse (female, 8 to 12 weeks old) and BL dissolved in 0.2 mL PBS (0, 0.2, 1 and 5 mg/Kg of body weight) was intraperitoneally administered every other day. The serum was isolated 2 weeks later and measured for the production of immunoglobulin (IgG) specific to the antigen (ovalbumin) using ELISA. ELISA was carried out using a biotinylated anti-mouse IgG antibody (Southern Biotechnology Associates Inc.) as the secondary antibody, streptavidin-HRP (Prozyme, Inc.) and a TMB Microwell Peroxidase Substrate (Kirkegaard & Perry Laboratories, Inc.) as the colorimetric substrate, and the absorbance at 450 nm was measured."}, "macrophages [2]": {"test_system": "macrophages", "assay": "cytokine mRNA expression in macrophages stimulated with R848 (real time PCR)", "format": "cell-based, mouse", "conditions": "10 nM BL for 15 minutes, then R848 stimulation, RNA 1 hour later, relative to HPRT mRNA", "protocol": "3 mL of 3% thioglycolate medium (Difco Laboratories) was intraperitoneally administered to a BALB/c mouse (female, 8 to 12 weeks age), peritoneal cells were collected 3 days later and cultured in RPMI-1640 medium containing 10% fetal bovine serum (Cansera International Inc.), 5×10^−5M β-mercaptoethanol (Wako Pure Chemical Industries, Ltd.), 20 U/mL penicillin (Meiji Seika Kaisha, Limited) and 100 μg/mL streptomycin (Meiji Seika Kaisha, Limited) at 37° C. under the presence of 5% CO2. After culturing 1×10^6/mL of the peritoneal cells for 3 hours in a 6-well plate (2 mL/well), non-adherent cells were removed and adherent cells were tested as the macrophages. The macrophages were cultured for 15 minutes in the presence or absence of 10 nM BL, subsequently stimulated with R848 (InvivoGen) or LPS (Sigma-Aldrich Corporation) 100 ng/mL, and the RNA was collected 1 hour later using Rneasy Mini Kit (QIAGEN K. K.). Using a Primescript RT reagent kit (TAKARA BIO INC.), cDNA was synthesized from […] of the isolated RNA in accordance with the attached protocol and the real time PCR was carried out using Thermal Cycler Dice Real Time System II (TAKARA BIO INC.) to examine the changes of cytokine (IFN-α, IFN-β, IL-12 subunit p35, IL-12 subunit p40, TNF-α) mRNA expression. […]"}, "macrophages [3]": {"test_system": "macrophages", "assay": "cytokine mRNA expression in macrophages stimulated with LPS (real time PCR)", "format": "cell-based, mouse", "conditions": "10 nM BL for 15 minutes, then LPS stimulation, RNA 1 hour later, relative to HPRT mRNA", "protocol": "3 mL of 3% thioglycolate medium (Difco Laboratories) was intraperitoneally administered to a BALB/c mouse (female, 8 to 12 weeks age), peritoneal cells were collected 3 days later and cultured in RPMI-1640 medium containing 10% fetal bovine serum (Cansera International Inc.), 5×10^−5M β-mercaptoethanol (Wako Pure Chemical Industries, Ltd.), 20 U/mL penicillin (Meiji Seika Kaisha, Limited) and 100 μg/mL streptomycin (Meiji Seika Kaisha, Limited) at 37° C. under the presence of 5% CO2. After culturing 1×10^6/mL of the peritoneal cells for 3 hours in a 6-well plate (2 mL/well), non-adherent cells were removed and adherent cells were tested as the macrophages. The macrophages were cultured for 15 minutes in the presence or absence of 10 nM BL, subsequently stimulated with R848 (InvivoGen) or LPS (Sigma-Aldrich Corporation) 100 ng/mL, and the RNA was collected 1 hour later using Rneasy Mini Kit (QIAGEN K. K.). Using a Primescript RT reagent kit (TAKARA BIO INC.), cDNA was synthesized from […] of the isolated RNA in accordance with the attached protocol and the real time PCR was carried out using Thermal Cycler Dice Real Time System II (TAKARA BIO INC.) to examine the changes of cytokine (IFN-α, IFN-β, IL-12 subunit p35, IL-12 subunit p40, TNF-α) mRNA expression.\nThe mRNA amounts are shown for IFN-α in FIG. 3, IFN-β in FIG. 4, IL-12 subunit p35 in FIG. 5, IL-12 subunit p40 in FIG. 6 and TNF-α in FIG. 7. The mRNA amount in each Figure is indicated as the relative amount to the mRNA amount of HPRT, which is the housekeeping gene."}},
  "data": [
    {"smiles": "CC(C)[C@H](C)[C@@H](O)[C@H](O)[C@@H](C)[C@H]1CC[C@H]2[C@@H]3COC(=O)[C@H]4C[C@H](O)[C@H](O)C[C@]4(C)[C@H]3CC[C@]12C", "note": "[BL, Brassinolide]", "values": [
      {"measurement": "spleen cell proliferation induced by the antigen stimulation (incorporated BrdU)", "setting": "[1]", "result": "significantly promoted"},
      {"measurement": "antigen specific antibody (IgG) production induced by ovalbumin and aluminum hydroxide", "setting": "BALB/c mouse", "result": "significantly promoted"},
      {"measurement": "IFN-α mRNA expression induction", "setting": "macrophages [2]; FIG. 3", "result": "enhancing"},
      {"measurement": "IFN-β mRNA expression induction", "setting": "macrophages [2]; FIG. 4", "result": "enhancing"},
      {"measurement": "IL-12 p35 mRNA expression induction", "setting": "macrophages [3]; FIG. 5", "result": "enhancing"},
      {"measurement": "IL-12 p40 mRNA expression induction", "setting": "macrophages [3]; FIG. 6", "result": "enhancing"},
      {"measurement": "TNF-α mRNA expression induction", "setting": "macrophages [3]; FIG. 7", "result": "enhancing"}
    ]}
  ]
}
